Key:
[1] = Microsomal stability, human liver microsomes; format: in vitro ADME; conditions: residual amount % after 1 hour, 37° C., 5 μM, 1 mg/ml microsomes, NADPH regenerating system
Protocol: To confirm the reactivity of the test substances with intra-hepatic CYP450 enzymes, 5 μM test substances and 1 mg/ml human liver microsomes were incubated for 1 hour at a temperature of 37° C. in the presence of an NADPH regenerating system. After 1 hour, acetonitrile was added to terminate the reaction, and the supernatant obtained by centrifugation was analyzed by HPLC. The remaining amount % was calculated using the following equation using the value of the reacted sample for 1 hour relative to the value of the 0-minute sample as the peak value obtained as an analysis result. (Peak value of the sample reacted for 1 hour/peak value of the sample at 0 minutes)×100=residual amount %

[2] = Microsomal stability, mice microsomes; format: in vitro ADME; conditions: residual amount % after 1 hour, 37° C., 5 μM, NADPH regenerating system
MOLM-13 = experiment: Cell growth inhibition (MTS), MOLM-13; format: cell-based; conditions: Homo sapiens, MOLM-13, 72 h, incubation three days
Protocol: (§1) The human acute myelogenous leukemia […] cell line MOLM-13 (DSMZ no. ACC 554) was incubated in RPM11640 medium supplemented with 20% heat-inactivated FBS at a temperature of 37° C. The incubated cell line was prepared in an amount of 2.0×10^4 cells/100 μL, and then plated on a 96-well plate. The RPMI1640 medium was serially diluted with the test compounds at a concentration in a range of 1 μM to 0.01 nM at a ratio of 1:10. Subsequently, incubation was performed thereon for three days. For the human acute myelogenous leukemia cell line MV-4-11 cell line (ATCC® CRL-9591™), the cells were incubated at a temperature of 37° C. in IMDM medium supplemented with 10% FBS. The incubated cell line was prepared in an amount of 2×10^4 cells/100 μL, and then plated on a 96-well plate. The IMDM medium was treated with cascade dilution of three test compounds at a concentration in a range of 1 μM to 0.01 nM at a rate of 1/10. Subsequently, incubation was performed thereon for three days. MTS test was performed to measure cell viability, and the growth inhibition (GI50) value of the cell line was calculated using GraphPad Prism software.

SYK = SYK (Homo sapiens (Human), UniProt P43405); experiment: z-LYTE kinase assay, SYK; format: biochemical; conditions: compound concentration 100 nM
Protocol: The SYK inhibitory activity of the compounds was evaluated based on z-LYTE technology developed by Thermo Fisher Scientific Inc. According to this evaluation method, signals of the fluorescence of FRET-peptides are measured, wherein fluorescence of a FRET-peptide which is phosphorylated by the […] and fluorescence of a non-phosphorylated peptide are measured to identify an activity with respect to kinase. […] The background signal was measured in the absence of proteins; a non-inhibitory signal was measured only when the solvent (1% DMSO) was added; and an evaluation compound was used at a concentration of 100 nM to calculate the SYK inhibitory activity of the evaluation compound as a percentage (%).

MV-4-11 = experiment: Cell growth inhibition (MTS), MV-4-11; format: cell-based; conditions: Homo sapiens, MV4-11, 72 h, incubation three days
Protocol: as §1

VEGFR2 (KDR) = VEGFR2 (KDR) (Homo sapiens (Human), UniProt P35968); experiment: z-LYTE kinase assay, VEGFR2; format: biochemical; conditions: compound concentration 100 nM
Chain of VEGFR2 (KDR) (P35968 20-1356): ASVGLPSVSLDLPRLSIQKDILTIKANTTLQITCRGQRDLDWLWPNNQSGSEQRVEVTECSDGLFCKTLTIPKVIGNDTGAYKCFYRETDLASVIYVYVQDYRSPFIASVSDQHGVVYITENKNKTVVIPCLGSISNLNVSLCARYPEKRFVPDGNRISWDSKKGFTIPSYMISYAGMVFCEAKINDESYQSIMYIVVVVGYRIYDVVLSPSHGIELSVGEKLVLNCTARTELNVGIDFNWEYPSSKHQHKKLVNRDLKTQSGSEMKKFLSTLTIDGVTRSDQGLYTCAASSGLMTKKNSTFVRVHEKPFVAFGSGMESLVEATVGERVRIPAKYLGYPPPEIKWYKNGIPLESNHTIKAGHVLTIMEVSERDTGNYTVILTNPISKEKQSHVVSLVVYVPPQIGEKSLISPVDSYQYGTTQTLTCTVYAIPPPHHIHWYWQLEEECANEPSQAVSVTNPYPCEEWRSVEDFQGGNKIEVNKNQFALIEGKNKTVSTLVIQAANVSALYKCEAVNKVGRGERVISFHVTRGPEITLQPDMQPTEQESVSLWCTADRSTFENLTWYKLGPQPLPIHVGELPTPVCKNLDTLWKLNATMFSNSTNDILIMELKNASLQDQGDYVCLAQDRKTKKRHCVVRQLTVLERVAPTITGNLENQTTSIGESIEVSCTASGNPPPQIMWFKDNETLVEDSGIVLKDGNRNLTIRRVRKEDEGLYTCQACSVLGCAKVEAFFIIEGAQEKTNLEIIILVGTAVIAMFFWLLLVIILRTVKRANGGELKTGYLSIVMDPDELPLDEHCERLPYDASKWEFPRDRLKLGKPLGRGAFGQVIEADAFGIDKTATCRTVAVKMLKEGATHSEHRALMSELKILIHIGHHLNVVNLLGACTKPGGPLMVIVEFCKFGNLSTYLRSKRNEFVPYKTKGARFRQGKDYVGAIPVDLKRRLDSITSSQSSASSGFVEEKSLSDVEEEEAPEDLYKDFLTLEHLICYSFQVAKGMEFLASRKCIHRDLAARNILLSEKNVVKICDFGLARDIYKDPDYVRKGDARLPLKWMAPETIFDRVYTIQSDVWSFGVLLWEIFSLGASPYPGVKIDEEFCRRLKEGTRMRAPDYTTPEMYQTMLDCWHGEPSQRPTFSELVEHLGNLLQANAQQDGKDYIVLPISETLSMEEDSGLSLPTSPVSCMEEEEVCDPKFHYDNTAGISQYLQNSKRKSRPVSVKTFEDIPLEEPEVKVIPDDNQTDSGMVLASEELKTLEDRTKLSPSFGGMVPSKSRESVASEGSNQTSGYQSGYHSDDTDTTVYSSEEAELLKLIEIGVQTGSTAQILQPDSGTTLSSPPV

FLT3 ITD = FLT3 ITD (Homo sapiens, UniProt P36888, ITD); experiment: LanthaScreen kinase binding assay, FLT3 ITD
Chain of FLT3 ITD (P36888 whole entry, looked up, change not shown): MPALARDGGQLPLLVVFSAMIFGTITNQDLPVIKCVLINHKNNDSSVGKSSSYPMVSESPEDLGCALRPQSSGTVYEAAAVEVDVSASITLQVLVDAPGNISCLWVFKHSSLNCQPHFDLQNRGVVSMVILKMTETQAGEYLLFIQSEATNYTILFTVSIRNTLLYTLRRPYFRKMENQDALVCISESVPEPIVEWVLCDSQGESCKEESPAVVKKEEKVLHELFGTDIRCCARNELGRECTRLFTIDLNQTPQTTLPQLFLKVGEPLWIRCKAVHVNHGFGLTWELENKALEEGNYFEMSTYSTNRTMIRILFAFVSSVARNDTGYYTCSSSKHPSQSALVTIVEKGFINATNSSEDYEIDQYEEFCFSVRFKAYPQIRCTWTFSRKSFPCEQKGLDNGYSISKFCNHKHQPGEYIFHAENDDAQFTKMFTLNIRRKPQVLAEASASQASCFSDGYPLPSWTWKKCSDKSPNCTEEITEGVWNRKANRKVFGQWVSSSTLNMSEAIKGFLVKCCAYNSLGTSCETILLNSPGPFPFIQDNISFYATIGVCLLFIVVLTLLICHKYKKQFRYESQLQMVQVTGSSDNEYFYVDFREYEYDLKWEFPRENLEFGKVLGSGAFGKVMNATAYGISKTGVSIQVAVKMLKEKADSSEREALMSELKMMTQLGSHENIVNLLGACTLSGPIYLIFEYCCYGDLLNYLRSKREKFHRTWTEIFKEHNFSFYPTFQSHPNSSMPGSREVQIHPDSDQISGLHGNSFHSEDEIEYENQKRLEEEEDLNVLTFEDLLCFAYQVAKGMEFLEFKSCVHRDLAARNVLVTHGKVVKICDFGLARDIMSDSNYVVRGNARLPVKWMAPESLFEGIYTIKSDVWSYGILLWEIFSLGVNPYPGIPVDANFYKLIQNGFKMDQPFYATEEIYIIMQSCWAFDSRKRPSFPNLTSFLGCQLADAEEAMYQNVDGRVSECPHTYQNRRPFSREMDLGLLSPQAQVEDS
Protocol: (§2) The inhibitory activity of some of the compounds described above against FLT3-ITD, FLT3 wild type (WT), VEGFR2 (KDR), and SYK kinase was measured.
(§3) This experiment was carried out on a 384-well plate in conditions including 50 mM HEPES pH 7.5, 0.01% BRIJ-35, 10 mM MgCl2, 1 mM EGTA, and 1% DMSO.

[3] = Pharmacokinetic profile in mice (p.o. and i.v.); format: in vivo; parameters: AUC: concentration or dose not given beside the values; conditions: mouse, plasma
Protocol: After test substances were formulated by using the selected solvents, they were administered orally (p.o.) and intravenously (iv) once for each and a certain amount of blood was taken at a predetermined time, and plasma was isolated from the blood and a concentration analysis was performed thereon by LC-MS/MS. The AUC (drug concentration and an area under the curve) was calculated according to the linear-log trapezoidal summation formula by using the non-compartment analysis of the WinNonlin program through the plasma concentration curves over time. The bioavailability (BA) was calculated by applying the calculated AUC value to the following formula. BA (%)=(AUC p.o./AUC i.v.)×(Dose i.v./Dose p.o.)×100

FLT3 WT = FLT3 WT (Homo sapiens (Human), UniProt P36888); experiment: LanthaScreen kinase binding assay, FLT3 WT; conditions: kinase tracer-236, 50 nM to 0.05 nM
Chain of FLT3 WT (P36888 27-993): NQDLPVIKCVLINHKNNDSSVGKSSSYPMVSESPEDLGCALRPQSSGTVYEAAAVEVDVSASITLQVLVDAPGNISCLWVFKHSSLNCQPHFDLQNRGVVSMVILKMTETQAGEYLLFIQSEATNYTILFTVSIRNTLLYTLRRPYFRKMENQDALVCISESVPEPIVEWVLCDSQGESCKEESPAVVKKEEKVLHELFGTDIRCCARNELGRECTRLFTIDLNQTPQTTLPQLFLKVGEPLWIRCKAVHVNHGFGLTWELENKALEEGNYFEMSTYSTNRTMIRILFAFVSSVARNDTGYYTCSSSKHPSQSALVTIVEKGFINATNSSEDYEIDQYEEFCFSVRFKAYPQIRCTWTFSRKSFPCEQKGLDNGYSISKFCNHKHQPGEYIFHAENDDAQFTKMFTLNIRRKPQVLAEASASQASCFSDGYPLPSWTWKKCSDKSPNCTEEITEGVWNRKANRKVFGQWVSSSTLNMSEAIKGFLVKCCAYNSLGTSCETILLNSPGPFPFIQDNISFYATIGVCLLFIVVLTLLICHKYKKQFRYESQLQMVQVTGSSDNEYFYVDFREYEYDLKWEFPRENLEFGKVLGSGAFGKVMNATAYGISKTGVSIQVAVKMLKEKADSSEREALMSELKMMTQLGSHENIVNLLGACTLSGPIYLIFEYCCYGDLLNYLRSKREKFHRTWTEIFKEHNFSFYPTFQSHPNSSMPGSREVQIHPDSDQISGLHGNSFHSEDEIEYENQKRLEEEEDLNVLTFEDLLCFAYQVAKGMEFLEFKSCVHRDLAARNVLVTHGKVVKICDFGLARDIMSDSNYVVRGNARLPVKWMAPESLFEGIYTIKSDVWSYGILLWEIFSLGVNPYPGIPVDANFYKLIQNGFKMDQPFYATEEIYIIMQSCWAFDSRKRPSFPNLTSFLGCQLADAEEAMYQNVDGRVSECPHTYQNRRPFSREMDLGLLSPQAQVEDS
Protocol: as §2, §3

| Human microsomal stability (%) [1] | Mice microsomal stability (%) [2] | GI50 (MOLM-13) | inhibition at 0.1 µM (SYK) | GI50 (MV-4-11) | inhibition at 0.1 µM (VEGFR2 (KDR)) | Compound | IC50 (FLT3 ITD) | AUC ([3]; LC-MS/MS, non-compartment analysis, read-out: Area under the curve (AUC) of mice) | bioavailability ([3]; po, BA=(AUC p.o./AUC i.v.)×(Dose i.v./Dose p.o.)×100) | IC50 (FLT3 WT) |
| --- | --- | --- | --- | --- | --- | --- | --- | --- | --- | --- |
| 49% | 29% |  |  |  |  | CCN(CC)C1CCN(c2cc(Nc3ncc(Cl)c(-c4c[nH]c5cc(C)ccc45)n3)cc(C3CC3)c2)CC1 [Control Compound 6, reference compound] |  |  |  |  |
|  |  | 4 nM | 73% | 1.2 nM | 95% | C[C@@H]1CN(Cc2cc(Nc3ncc(Cl)c(-c4c[nH]c5cc(F)ccc45)n3)cc(C3CC3)c2)C[C@H](C)N1 [Example 1, 5-chloro-N-(3-cyclopropyl-5-(((3R,5S)-3,5-dimethylpiperazine-1-yl)methyl)phenyl)-4-(6-fluoro-1H-indole-3-yl)pyrimidine-2-amine] |  |  |  |  |
|  |  | 0.8 nM | 78% | 0.5 nM | 71% | Cc1ccc2c(-c3nc(Nc4cc(CN5C[C@@H](C)N(CCO)[C@@H](C)C5)cc(C5CC5)c4)ncc3Cl)c[nH]c2c1 [Example 5, 2-((2R,6S)-4-(3-((5-chloro-4-(6-methyl-1H-indole-3-yl)pyrimidine-2-yl)amino)-5-cyclopropylbenzyl)-2,6-dimethylpiperazine-1-yl)ethane-1-ol] | 7.2 nM |  |  |  |
|  |  | 5.2 nM | 95% | 1.3 nM | 100% | Cc1ccc2c(-c3nc(Nc4cc(CN5C[C@@H](C)N[C@@H](C)C5)cc(C5CC5)c4)ncc3Cl)c[nH]c2c1 [Example 8, 5-chloro-N-(3-cyclopropyl-5-(((3R,5S)-3,5-dimethylpiperazine-1-yl)methyl)phenyl)-4-(6-methyl-1H-indole-3-yl)pyrimidine-2-amine] |  |  |  |  |
| 72% | 69% |  |  |  |  | Cc1ccc2c(-c3nc(Nc4cc(CN5C[C@@H](C)NC6(CC6)C5)cc(C5CC5)c4)ncc3Cl)c[nH]c2c1 [Example 27, (R)-5-chloro-N-(3-cyclopropyl-5-((5-methyl-4,7-diazaspiro[2.5]octan-7-yl)methyl)phenyl)-4-(6-methyl-1H-indole-3-yl)pyrimidine-2-amine] |  |  |  |  |

| Compound | Human microsomal stability (%) [1] | Mice microsomal stability (%) [2] | GI50 (MOLM-13) | inhibition at 0.1 µM (SYK) | GI50 (MV-4-11) | inhibition at 0.1 µM (VEGFR2 (KDR)) | IC50 (FLT3 ITD) | AUC ([3]; LC-MS/MS, non-compartment analysis, read-out: Area under the curve (AUC) of mice) | bioavailability ([3]; po, BA=(AUC p.o./AUC i.v.)×(Dose i.v./Dose p.o.)×100) | IC50 (FLT3 WT) |
| --- | --- | --- | --- | --- | --- | --- | --- | --- | --- | --- |
| Cc1ccc2c(-c3nc(Nc4cc(CN5C[C@@H](C)NC(C)(C)C5)cc(C5CC5)c4)ncc3Cl)c[nH]c2c1 [Example 25, (R)-5-chloro-N-(3-cyclopropyl-5-((3,3,5-trimethylpiperazine-1-yl)methyl)phenyl)-4-(6-methyl-1H-indole-3-yl)pyrimidine-2-amine] |  |  | 8.5 nM |  | 9.3 nM |  | 20 nM | 21800 ng·h/mL | 21.2% | 2.3 nM |

From patent US10870639B2, “Pyrimidine compounds and pharmaceutical compositions for preventing or treating cancers including the same” (HANMI PHARM. CO., LTD., priority 2018, dated 2020)
